Measured values: patent US20260097022A1, “COMPOUNDS AND USES THEREOF” (Integrated Biosciences, Inc., priority 2023, published 2026)
pIC50: −log10 of the molar value.

What was measured:
[1] = tested on: etoposide-treated IMR-90 cells; experiment: Etoposide-induced senescence model, resazurin cell viability (screen and dose-response); format: cell-based, human; settings: for senolytic activity in screen: 3 days; for Therapeutic Index (TI): etoposide-induced senescence model, ratio of IC50 values between etoposide- and DMSO-treated IMR-90 fibroblasts
Summary of the method: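 IMR-90 fibroblasts made senescent with 50 μM etoposide for 2 days, then 4 days recovery before plating. Compounds at 10 μM or 1 μM final (screen) or three-fold dilutions (1% DMSO) for 3 days, then 0.15 mM resazurin 1 day, fluorescence 550/590 nm. Viability expressed as fraction of untreated controls; biological duplicates.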

primary human T-cells = experiment: Cytotoxicity to T-cells in vitro; format: cell-based; settings: for T-cell death: at about 0.1 μM; for pIC50: primary human T-cells, read-out: T-cell cytotoxicity IC50
[2] = Phase II, lung carcinoma; cited from earlier work
HEK293 cells = experiment: Cytotoxicity against HEK293 cells (resazurin); format: cell-based, human; settings: 3 days treatment; curve-fitting, two biological replicates
Method: (§1) Measuring cytotoxicity against HepG2 and HEK293 cells. Cytotoxicity in human embryonic kidney (HEK293) and liver carcinoma (HepG2) cells was assayed as above using a resazurin assay. Cells were obtained from ATCC (ATCC CRL-1573 and HB-8065), passaged <10 times, and grown in Dulbecco's modification of Eagle's Medium (DMEM: Corning 10^−013-CV) supplemented with 10% FBS and 1% penicillin-streptomycin. 99 μL of cells were plated into each well of a 96-well clear flat-bottom, black polystyrene tissue-culture-treated plate at a density of ˜10+ cells/well, and plates were incubated overnight for adhesion. The day after plating. 1 μL of each compound, prepared as two-fold serial dilutions of 5 mM stock solutions in DMSO, was added to each well. Cells were incubated for 3 days, after which resazurin was added to each well to a final concentration of 0.15 mM. After an additional 1 day of incubation, the fluorescence excitation/emission at 550/590 nm was read using a SpectraMax M3 plate reader. Experiments were performed in biological duplicate. IC50 values were determined by normalizing with respect to the fluorescence intensity values of untreated control cells on day 3, as described in Calculation of cellular viability values in dose-response curves above.

HepG2 cells = experiment: Cytotoxicity against HepG2 cells (resazurin); format: cell-based, human; settings: 3 days treatment; curve-fitting, two biological replicates
Method: as §1

human red blood cells = experiment: Hemolysis assay; format: cell-based
Method: Hemolysis assay. Whole human blood containing EDTA (Innovative Resarch IWB1K2E) was centrifuged at 120×g at 4° C., for 5 min and resuspended in Dulbecco's PBS (DPBS: VWR 02-0119-0500). These washing steps were repeated until the supernatant was clear. Red blood cells were then resuspended in DPBS to 5×10^8 cells/mL, and 100 μL of cells was plated into each well of a 96-well clear round-bottom plate. Compounds were added to the indicated concentrations, and DMSO was used as a vehicle. Samples were incubated for 1 h at 37° C., without shaking, after which plates were centrifuged at 1500×g at room temperature for 5 min to pellet cells. 60 μL of the supernatant from each sample was then transferred to a 96-well clear flat-bottom plate, and the absorbance was read at 405 nm using a SpectraMax M3 plate reader to quantify the amount of soluble hemoglobin. Fractional hemolysis was determined by linearly interpolating absorbance values with respect to a positive control (saturation with 10% Triton X-100) and a negative control (1% DMSO vehicle). Results are depicted in FIG. 14.

[3] = tested on: Salmonella typhimurium TA100; experiment: Genotoxicity assay (Ames 384-ISO test); format: cell-based; settings: 100 μM
Method: Genotoxicity assay. An Ames 384-ISO test (6041-1S) from Environmental Bio-Detection Products, Inc, was used following the manufacturer's instructions. Briefly. Salmonella typhimurium TA100 was grown overnight (16-18 h) at 37° C., with shaking at 300 rpm and treated with the provided exposure media and compound samples at the final concentrations indicated. Treatment with the provided 4-nitroquinoline 1-oxide (4NQO), a mutagen, was used as a positive control. Cells were then added to the provided reversion solution, and each sample was split into 48 wells of 384-well plates. Plates were incubated at 37° C., for 2 days, after which the number of revertant (yellow-colored) wells corresponding to each sample was counted. […] An overnight bacterial culture was diluted 1:10.000 in LB medium (Becton Dickinson 244620) and plated using 99 μL working volumes into the wells of a clear flat-bottom 96-well plate. One μL of two-fold dilutions of each test compound in DMSO, starting from a final concentration of 500 μM, was added across wells, and plates were sealed and incubated overnight at 37° C., to determine bacterial growth.

[4] = cited from earlier work
Mcl-1 = Mcl-1 (Homo sapiens, UniProt Q07820); experiment: Mcl-1 TR-FRET; format: binding
Sequence of Mcl-1 (Q07820 whole entry, species assumed): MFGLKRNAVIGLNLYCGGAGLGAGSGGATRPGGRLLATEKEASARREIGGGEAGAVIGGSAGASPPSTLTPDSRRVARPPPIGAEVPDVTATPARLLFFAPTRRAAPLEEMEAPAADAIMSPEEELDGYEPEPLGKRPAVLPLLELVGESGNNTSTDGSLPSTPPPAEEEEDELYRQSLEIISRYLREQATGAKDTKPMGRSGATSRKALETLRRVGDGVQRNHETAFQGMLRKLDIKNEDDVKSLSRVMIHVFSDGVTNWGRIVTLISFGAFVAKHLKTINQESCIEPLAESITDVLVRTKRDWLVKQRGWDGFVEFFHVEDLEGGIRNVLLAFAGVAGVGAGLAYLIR

ex vivo human skin = experiment: Ex vivo aged human skin model
Method: IBX-100 was first tested in ex vivo skin for safety.
IBX-100 was further tested in ex vivo skin for efficacy, p16 mRNA expression was measured after 5 days of topical application of IBX-100 on an older subject (e.g. Person, Fitzpatrick type 2) skin, and compared to vehicle values.

[5] = tested on: wounded ex vivo human skin; experiment: Ex vivo wounded skin model
Method: For the younger skin sample, RNA expression levels of collagen (Col1a1) and matrix metallopeptidase 9 (MMP9) were additionally measured. Higher levels of Col1a1 may be associated with senescence and scarring.
IBX-100 was tested again for safety in a combination dosing regimen. IBX-100 was formulated as a 10% solution in 100% DMSO and applied directly by pipetting 5 μL on wounded younger skin (e.g. Person, Fitzpatrick type 2-3). Additionally, IBX-100 was administered to the culture medium at a final concentration of about 100 μg/mL, by adding 1 μL of a 100 mg/mL solution in DMSO to 1 mL of culture media, as a model of systemic administration.
To test efficacy. IBX-100 was applied both topically and systemically as described above every 24 h for 5 days. On day 6, the skin biopsies were excised, and p16. Col1a1, and MMP9 RNA expression was measured inside each wound. Compared to vehicle (e.g., DMSO) values, p16. Col1a1, and MMP9 expression was decreased, on average, by ˜30%. ˜ 60%, and ˜60%, respectively, with administration of IBX-100 (FIG. 19).

[6] = Cytotoxicity to T-cells in vitro; format: cell-based, human; settings: human, primary human T-cells; read-out: T-cell cytotoxicity IC50
[7] = 10 μM, active: control viability >0.5, Snc/control ratio <0.7
[8] = topical and systemic every 24 h for 5 days, day 6

## CC1(C)CCC(c2ccc(Cl)cc2)=C(CN2CCN(c3ccc(C(=O)NS(=O)(=O)c4ccc(N[C@H](CCN5CCOCC5)CSc5ccccc5)c(S(=O)(=O)C(F)(F)F)c4)cc3)CC2)C1 [ABT-263]
[1]; 1 μM
  senolytic activity in screen: inactive
[1]; [7]
  senolytic activity in screen: active
Primary human T-cells
  T-cell death: substantial cell death
  pIC50: ~6.00
[2]
  side effects in patients: thrombocytopenia and neutropenia were common side effects

## CN(C)CC[C@H](CSc1ccccc1)Nc1ccc(S(=O)(=O)NC(=O)c2ccc(N3CCN(Cc4ccccc4-c4ccc(Cl)cc4)CC3)cc2)cc1[N+](=O)[O-] [ABT-737, reference compound]
[1]; 1 μM
  senolytic activity in screen: inactive
[1]; [7]
  senolytic activity in screen: active
HEK293 cells
  pIC50: 4.54
HepG2 cells
  pIC50: 3.88
Human red blood cells; up to a final concentration of 100 μM, 1 h at 37° C.
  hemolysis: did not induce significant hemolysis
[3]
  reversion of bacterial cultures (mutagenic potential): did not induce significant reversion
Primary human T-cells
  T-cell death: substantial cell death
  pIC50: ~6.00
[4]
  bioavailability: limited bioavailability

## O=c1c(O)c(-c2ccc(O)c(O)c2)oc2cc(O)ccc12 [fisetin]
[4]
  bioavailability: limited bioavailability

## CC1(C)CCC(CN2CCN(c3ccc(C(=O)NS(=O)(=O)c4ccc(NCC5CCOCC5)c([N+](=O)[O-])c4)c(Oc4cnc5[nH]ccc5c4)c3)CC2)=C(c2ccc(Cl)cc2)C1 [ABT-199]
Primary human T-cells
  T-cell death: substantial cell death
  pIC50: ~6.00

## CCOc1ccc(NC(=O)CSc2nc3ccc(NC(=O)c4ccccc4C)cc3s2)cc1 [compound 1]
Mcl-1
  pIC50: < 4.00
Ex vivo human skin; 5% topical ointment in 10% DMSO: 45% PEG300:45% water, older and younger subject skin
  safety in ex vivo skin: No adverse effects
Ex vivo human skin; 5 days of topical application, older subject skin, three samples
  average decrease in p16 mRNA expression compared to vehicle: approximately 40%
[5]; 10% solution in DMSO topically and about 100 μg/mL in culture medium
  safety in wounded ex vivo skin: no adverse effects
[5]; [8]
  average decrease in Col1a1 RNA expression inside wound compared to vehicle: ~60%
  average decrease in MMP9 RNA expression inside wound compared to vehicle: ~60%
  average decrease in p16 RNA expression inside wound compared to vehicle: ~30%
[6]
  pIC50: < 4.00

## Triton X-100 [reference compound]
Human red blood cells; concentrations ≥0.01% (w/w), positive control
  hemolysis: substantial hemolysis

## COc1ccc(NC(=O)CSc2nc3ccc(NC(=O)c4ccccc4OC)cc3s2)cc1 [compound 101]
[1]
  Therapeutic Index (TI): ++ (compounds with a TI of 1 to 5 were labelled as ++)

## CCOc1ccc(NC(=O)C(C)Sc2nc3ccc(NC(=O)c4ccc(OC)cc4)cc3s2)cc1 (centres unmarked) [compound 41]
[1]
  Therapeutic Index (TI): ++ (compounds with a TI of 1 to 5 were labelled as ++)

## COc1ccccc1C(=O)Nc1ccc2nc(SCC(=O)Nc3ccccc3)sc2c1 [compound 104]
[1]
  Therapeutic Index (TI): ++ (compounds with a TI of 1 to 5 were labelled as ++)

## CC(=O)c1ccc(NC(=O)CSc2nc3ccc(NC(=O)c4cccc(C)c4)cc3s2)cc1 [compound 138]
[1]
  Therapeutic Index (TI): ++ (compounds with a TI of 1 to 5 were labelled as ++)

## Cc1ccc(NC(=O)CSc2nc3ccc(NC(=O)c4ccccc4)cc3s2)c(C)c1 [compound 88]
[1]
  Therapeutic Index (TI): ++ (compounds with a TI of 1 to 5 were labelled as ++)

## CN(C(=O)CSc1nc2ccc(NC(=O)c3ccccc3)cc2s1)c1ccccc1 [compound 146]
[1]
  Therapeutic Index (TI): + (Compounds with a TI of <1 were labelled as +)

## CCOc1ccc(C(=O)Nc2ccc3nc(SCC(=O)Nc4ccc(C)cc4)sc3c2)cc1 [compound 94]
[1]
  Therapeutic Index (TI): ++ (compounds with a TI of 1 to 5 were labelled as ++)

## CCOc1ccc(C(=O)Nc2ccc3nc(SCC(=O)Nc4ccccc4C)sc3c2)cc1 [compound 35]
[1]
  Therapeutic Index (TI): ++ (compounds with a TI of 1 to 5 were labelled as ++)

## CCc1ccc(NC(=O)CSc2nc3ccc(NC(=O)c4ccccc4)cc3s2)cc1 [compound 134]
[1]
  Therapeutic Index (TI): ++ (compounds with a TI of 1 to 5 were labelled as ++)

## COc1ccc(OC)c(NC(=O)CSc2nc3ccc(NC(=O)c4ccccc4C)cc3s2)c1 [compound 16]
[1]
  Therapeutic Index (TI): +++ (compounds with a TI of >5 were labeled as +++)

## Cc1ccc(C(=O)Nc2ccc3nc(SCC(=O)Nc4ccccc4F)sc3c2)cc1 [compound 56]
[1]
  Therapeutic Index (TI): ++ (compounds with a TI of 1 to 5 were labelled as ++)

## Cc1cc(C)c(NC(=O)C(C)Sc2nc3ccc(NC(=O)c4ccccc4C)cc3s2)c(C)c1 (centres unmarked) [compound 144]
[1]
  Therapeutic Index (TI): + (Compounds with a TI of <1 were labelled as +)
